Laboratory results as given in patent US8815590B2, “Composition and method for differentiation of human embryonic stem cells” (Stem Cells for Safer Medicines Limited, priority 2009, dated 2014).

Assays:
[1] = test system: Human ESCs [SHEF3]; assay: Colony morphology, RT-PCR and Western blot of OCT4/NANOG in treated human ESCs; assay type: cell-based
Method: Human ESCs [SHEF3] were treated with the indicated concentrations of BIO or compound 1M or left untreated as a control and cultured for 7 days. (A) Images show typical colonies formed following the indicated treatments. The scale bars represent 1 mm. (B) Histogram plots of ESCs analysed by flow cytometry following immunostaining with antibodies against the pluripotency markers Tra-1-60 or SSEA4. (C) RNA was extracted from the cells and RT-PCR analyses performed using primers specific to the pluripotency genes OCT4 and NANOG and to the house-keeping gene β-ACTIN. (D) Western blot analysis was performed on protein extracted from the cells and immunoblotted with antibodies specific to Oct4. Blots were stripped and reprobed with anti-Gapdh antibodies to assess equal loading. (E) Compound 1O also induces differentiation of human ESCs. SHEF3 cells were treated with the indicated concentration of 1O for 7 days. Images show typical colony morphology. (F) Histogram plots of ESCs analysed by flow cytometry following staining with Tra-1-60 and SSEA4 antibodies. Analysis of percent positive cells and mean fluorescent intensity are indicated on the plots. (G) RT PCR analysis for the expression of OCT4 and NANOG. Bands for each of the genes were from the same gel with intervening samples removed. (H) Western blot analysis of OCT4 protein expression. Proteins bands were from the same immunoblot with intervening samples removed.
SHEF1 and SHEF3 human ESCs were obtained from the UKSCB and cultured as outlined in their protocols. Briefly, ESCs were maintained on mitomycin C-inactivated mouse embryonic fibroblast (MEF) feeder layers in KnockOut Dulbecco's modified Eagle's medium (KO DMEM) (Invitrogen) supplemented with 20% (vol/vol) KO serum replacement (KOSR; Invitrogen), 1 mM non-essential amino acids (NEAA; Invitrogen), 1 mM glutamine (Invitrogen), 0.1 mM 2-mercaptoethanol (BioRad), penicillin/streptomycin, and 4 ng/ml recombinant human FGF2 (Peprotech). Cultures were passage using 1 mg/ml collagenase at a ratio of 1:8 to 1:12 every 7 days. Cultures were transferred to a feeder-free, chemically defined culture system on ESC-qualified Matrigel® (BD) coated plates in mTeSR1® (Stem Cell Technologies) media according to Stem Cell Technologies' protocol.
(§1) Total RNA was isolated and purified using TRIzol Reagent (Invitrogen), following the manufacturer's instructions. All RNA samples were treated with DNase I (Ambion) before cDNA synthesis to eliminate any contaminating genomic DNA. RNA (1 μg) was reverse transcribed into cDNA using Oligo(dT)15 (Promega) and SuperScript II (Invitrogen). Gene-specific PCR was carried out using primers and annealing temperatures outlined in Table 2.
Cell lysates (20 μg) were prepared, separated by SDS-PAGE and transferred to nitrocellulose as described previously (Welham et al., 1994). Immunoblotting was carried out using primary antibodies at the following dilutions: 1:5,000 anti-Oct4 (Santa Cruz Biotechnology; sc-9081); 1:2000 anti-GAPDH (sc-20357); 1:10,000 anti-phospho (Ser33/37/Thr41) β-catenin (Cell signalling Technology; CST 9561); 1:1000 anti-β-catenin (CST 9562). Anti-rabbit antibodies conjugated to horseradish peroxidise (DAKO) were used at 1:10,000 and blots were developed using ECL Advance (GE Healthcare) or ChemiGlow (Alpha Innotech) according to manufacturer's directions. Images were captured and analysed using the ImageQuant RT ECL system (GE Healthcare). Blots were stripped and reprobed as described previously (Welham et al., 1994).

[2] = test system: Human ESCs [SHEF3]; assay: Differentiation towards definitive endoderm: immunostaining and RT-PCR of endodermal markers; assay type: cell-based; details: 2 μM
Method: Human ESCs [SHEF3] were maintained feeder-free on Matrigel® in chemically defined mTeSR1® media and treated with 2 μM 1M for the days indicated. (A) Expression of the endodermal markers FoxA2, Sox17 and HNF4α were analysed by immunofluorescence. Treatment with compound 1M led to expression of all markers after 7 days treatment. Scale bar represents 50 μm. (B) ESCs were harvested on day 7 following treatment with 1M for the indicated days. RNA was extracted and RT-PCR analyses performed using primers selective for the genes indicated. […] (C) BIO induces differentiation towards the DE. SHEF3 ESCs were treated with 2 μM BIO for the times indicated and immunostained with antibodies towards the endodermal markers FOXA2, SOX17 and HNF4α. (D) Compound 1L also induces differentiation towards the DE. SHEF1 ESCs were treated with 2 μM 1L for the times indicated and immunostained with antibodies towards the endodermal markers FOXA2 and HNF4α.
ESCs were cultured feeder-free on Matrigel®-coated plates in mTeSR1® media, supplemented with 2 μM compound 1M for 7 days with the media being refreshed every-other day. Definitive endoderm cultures were passaged with collagenase (1 mg/ml) and plated at a ratio of 1:10 on Matrigel® in KO DMEM supplemented with glutamine, penicillin/streptomycin, NEAA, 2% (v/v) KOSR, 10 ng/ml HGF (Peprotech) and 10 ng/ml FGF4 and cultured for a further 7 days with the media being refreshed every-other day. To allow for maturation of the HLCs, 10 ng/ml oncostatin M (Peprotech) and 10^−7 dexamethasone (SIGMA) were added to the above media and the cells were cultured for an additional 7 days with fresh media every-other day.
as §1
ESCs were cultured on Matrigel®-coated lummox (Greiner Bio One) trays and fixed with 4% paraformaldehyde (PFA) for 20 minutes at room temperature. Cells were permeabilised in PBST (with 0.1% Triton X-100) and blocked in 10% blocking reagent (Roche) before incubating with primary antibodies in 2% blocking reagent overnight at 4° C. After washing in PBS, cells were incubated with FITC-conjugated secondary antibodies (Vector Labs) for 3 hours at room temperature. After further washing, the cells were stained with 4,6-diamidino-2-phenylindole (DAPI) (SIGMA), washed again and mounted in MOWIOL. […]

O=C1NC(=O)C2=C1c1cn(c3ccccc13)CCOCCOCCOCCOCCn1cc2c2ccccc21 [1M]
OCT4 and NANOG gene expression (RT-PCR) ([1]; 7 days treatment): loss of the pluripotency markers OCT4 and NANOG
Oct4 protein expression (Western blot) ([1]; 7 days treatment): loss of Oct4 protein expression
Proliferation and differentiation of human ESCs (colony morphology) ([1]; 7 days, on MEFs in KO DMEM or on Matrigel in mTeSR1, 1M at 2 μM): dramatic increase in proliferation and differentiation
Differentiation towards the DE (immunostaining FOXA2, SOX17, HNF4α) ([2]; feeder-free on Matrigel in mTeSR1, up to 7 days): differentiating towards the DE in a time dependent manner
Expression of HNF4α and AFP (early hepatic lineage) ([2]; following 7 days treatment): expression of HNF4α and α-fetoprotein (AFP) was observed
